The target of this assay is T1, human OX2R (Homo sapiens, UniProt O43614).
T1 construct: expressed in transfected cells; host or cells: CHO (Chinese hamster ovary) cells, grown under G418 selection
T1 sequence (O43614 1-444): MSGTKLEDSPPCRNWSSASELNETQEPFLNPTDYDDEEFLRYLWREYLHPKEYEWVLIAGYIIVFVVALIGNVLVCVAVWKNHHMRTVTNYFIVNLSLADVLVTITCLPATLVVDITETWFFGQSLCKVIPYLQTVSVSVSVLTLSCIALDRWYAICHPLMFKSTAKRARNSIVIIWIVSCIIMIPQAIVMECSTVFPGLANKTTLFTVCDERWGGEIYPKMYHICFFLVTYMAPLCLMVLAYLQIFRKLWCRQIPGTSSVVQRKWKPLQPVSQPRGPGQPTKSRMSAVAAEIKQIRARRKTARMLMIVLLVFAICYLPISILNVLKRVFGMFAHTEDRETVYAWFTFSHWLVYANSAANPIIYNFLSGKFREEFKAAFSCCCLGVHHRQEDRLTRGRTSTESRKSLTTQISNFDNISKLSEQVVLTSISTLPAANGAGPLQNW
Put plainly: IP-One (IPOne) orexin receptor agonist assay in CHO cells expressing human OX2R. Format: cell-based. The settings on record: for EC50: CHO cells expressing human OX2R, IP-One IP-1 detection, 2 hours incubation, four parameter logistic fit, read-out: OX2R Potency, EC50; for % of reference agonist maximal effect: human OX2R, percentage of sample raw value/mean max effect (reference compound at 1 uM with 100% activity). An excerpt:
The utility of the compounds in accordance with the present invention as orexin receptor OX1R and/or OX2R agonists may be readily determined without undue experimentation by methodology well known in the art. Both the OX1R and/or OX2R G-coupled protein receptors (GPCRs) couple through the Gαq signaling pathway, which ultimately promotes calcium mobilization via inositol triphosphate (IP3) production. The half-life of IP-3 is relatively short, being rapidly metabolized to inositol monophosphate (IP-1), which can be readily detected using a commercially available assay kit (IP-One; Cisbio; cat #621PAPEC) coupled with a cell line expressing the target receptor(s) of interest. The utility of the compounds in accordance with the present invention as orexin receptor OX1R and/or OX2R agonists may be determined utilizing this assay.
In a typical experiment, the OX1 and OX2 receptor agonist activity is determined in accordance with the following general experimental method. Chinese hamster ovary (CHO) cells expressing human OX1R and/or the human OX2R were grown in Iscove's modified DMEM containing glutaMAX™, 1% G418, 100 U/mL penicillin, 100 μg/mL streptomycin and 10% heat-inactivated qualified fetal bovine serum (FBS). The OX2R cells were seeded at 10,000 cells/well/50 μL and the OX1R cells were seeded at 20,000 cells/well/50 μL into 384-well white tissue culture plates (Greiner; cat #781080). All cell/media reagents were from GIBCO-Invitrogen Corp. The seeded cell plate(s) were incubated at 37° C. with 5% CO2 and 85% humidity for 20-24 hours. On the day of the assay, assay-ready compound plates were prepared using an acoustic liquid handler (ECHO; Labcyte), which dispensed sufficient volume of test compound stock (10 mM in DMSO) or 100% DMSO to prepare 10 point, ½-log dilutions in a final volume of 202.5 nL/well in all test wells of a 384-well diamond plate (Labcyte). Following completion of assay-ready plates, importantly, the next three steps were performed with minimal delay: 1) 20 μl of 1× stimulation buffer was added to the compound plate using a Multidrop Combi (small cassette, Thermo Fisher Scientific cat #24073290); 2) culture medium was removed from the cell plate using the Bluewasher plate washer (gentle spin; BlueCatBio); 3) 14 μl of compound/stimulation buffer mixture was added to the cell plate using a Bravo liquid handler (Agilent) prior to incubating cell plates at 37° C. with 5% CO2 and 85% humidity for 1 or 2 hours (OX1R and OX2R, respectively). During this incubation, IP-one detection reagents were prepared (38:1:1 lysis buffer:D2:AB-cryptate reagents). Six μL of mixed detection reagents were added to the cell plate using a Multidrop Combi (small cassette, Thermo Fisher Scientific cat #24073290) and incubated 60 minutes at room temperature in the dark. Fluorescence signal was detected using an Envision plate reader (Perkin Elmer) [LANCE/DELFIA Dual Enh (Em: APC 665; Ex: Cy5 620)].
For each compound, data were fit to a four parameter logistic fit (ActivityBase software) and the EC50 was reported as the inflection point of the resulting curve. Percent effect for each test compound was determined as the percentage of sample raw value/mean max effect, where the mean max effect was derived from the mean raw value of 32 control wells per assay plate (using Orexin A (cat #003-30) at 1 μM for human OX1R and a reference compound at 1 uM with 100% activity previously established by comparison to Orexin A for human OX2R). The intrinsic orexin receptor agonist activity of a compound which may be used in the present invention may be determined by these assays.

Some results are limits rather than exact numbers.

By EC50 is commonly meant the concentration that produces a half-maximal response.

For the compound `C#C[C@H](C)OC(=O)N1CCC[C@H](c2cc[nH]n2)[C@@H]1CO[C@H]1CC[C@@H](c2ccccc2)CC1` [Example 115, (S)-but-3-yn-2-yl (CIS)-2-((((CIS)-4-phenylcyclohexyl)oxy)methyl)-3-(1H-pyrazol-3-yl)piperidine-1-carboxylate], the EC50 came to 7470 nM and the “% of reference agonist maximal effect” value worked out at 51.4%.
As to `CCNC(=O)N1CCC[C@H](c2cc[nH]n2)[C@@H]1CO[C@H]1CC[C@@H](c2ccccc2)CC1` [Example 17, (2R,3S)-N-ethyl-2-((((CIS)-4-phenylcyclohexyl)oxy)methyl)-3-(1H-pyrazol-3-yl)piperidine-1-carboxamide], the EC50 came out at 27.8 nM and the “% of reference agonist maximal effect” value is listed as 100.1%.
With `COC(=O)N1CCC[C@H](c2n[nH]cc2C)[C@@H]1COC1CC=C(c2cccc(F)c2)CC1` (stereo partly drawn) [Example 13, methyl (CIS)-2-((((S)-3′-fluoro-2,3,4,5-tetrahydro-[1,1′-biphenyl]-4-yl)oxy)methyl)-3-(4-methyl-1H-pyrazol-3-yl)piperidine-1-carboxylate], the EC50 came to 4750 nM and the “% of reference agonist maximal effect” value was found to be 84.6%.
`COC(=O)N1CCC[C@H](c2n[nH]cc2Cl)[C@@H]1CO[C@H]1CC[C@@H](c2ccccc2)CC1` (single isomer, unassigned) [Example 45]: the EC50 was found to be 79.4 nM and the “% of reference agonist maximal effect” value is given as 100.2%.
Taken in the same sequence, the figures for `CC(C)[C@H]1CC[C@@H](OC[C@H]2[C@@H](c3cc[nH]n3)CCCN2C(=O)C2CC2(C)C)CC1` (relative stereo) [Example 81, (2,2-dimethylcyclopropyl)((CIS)-2-((((CIS)-4-isopropylcyclohexyl)oxy)methyl)-3-(1H-pyrazol-3-yl)piperidin-1-yl)methanone] were 5650 nM and 70.0%.
Taken in the same sequence, the figures for `C#CCOC(=O)N1CCC[C@H](c2cc[nH]n2)[C@@H]1CO[C@H]1CC[C@@H](c2ccccc2)CC1` (relative stereo) [Example 100, prop-2-yn-1-yl (CIS)-2-((((CIS)-4-phenylcyclohexyl)oxy)methyl)-3-(1H-pyrazol-3-yl)piperidine-1-carboxylate] were 2360 nM and 61.8%.
For the compound `O=C(OCCF)N1CCCC(c2ccn[nH]2)C1CO[C@H]1CC[C@@H](c2c(F)ccc(F)c2F)CC1` (relative stereo) [Example 30, 2-Fluoroethyl 3-(1H-pyrazol-5-yl)-2-((((CIS)-4-(2,3,6-trifluorophenyl)cyclohexyl)oxy)methyl)-piperidine-1-carboxylate], the EC50 worked out at 2920 nM and the “% of reference agonist maximal effect” value stood at 87.6%.
`COC(=O)N1CCC[C@H](c2[nH]ncc2C)[C@@H]1CO[C@H]1CC[C@@H](c2ccccc2)CC1` (relative stereo) [Example 23, methyl (CIS)-3-(4-methyl-1H-pyrazol-5-yl)-2-((((CIS)-4-phenylcyclohexyl)oxy)methyl)piperidine-1-carboxylate]: the EC50 is 211 nM and the “% of reference agonist maximal effect” value was 98.6%.
On the same counts, the results for `CC(C)[C@H]1CC[C@@H](OC[C@H]2[C@@H](c3cc[nH]n3)CCCN2C(=O)C2CC2)CC1` (relative stereo) [Example 75, cyclopropyl((CIS)-2-((((CIS)-4-isopropylcyclohexyl)oxy)methyl)-3-(1H-pyrazol-3-yl)piperidin-1-yl)methanone] are 3630 nM and 95.7%.
`CC[C@H]1C[C@@H]1C(=O)N1CCC[C@H](c2cc[nH]n2)[C@@H]1COC1CCC(c2ccccc2)CC1` (stereo in doubt) [Example 90, 5-((CIS)-1-((TRANS)-2-ethylcyclopropane-1-carbonyl)-2-((((CIS)-4-phenylcyclohexyl)oxy)methyl)piperidin-3-yl)-1H-pyrazol-2-ium 2,2,2-trifluoroacetate]: the EC50 stood at 1140 nM and the “% of reference agonist maximal effect” value was 90.7%.
On the same counts, the results for `CC1CC1C(=O)N1CCC[C@H](c2cc[nH]n2)[C@@H]1CO[C@H]1CC[C@@H](C(C)C)CC1` (relative stereo) [Example 76, ((CIS)-2-((((CIS)-4-isopropylcyclohexyl)oxy)methyl)-3-(1H-pyrazol-3-yl)piperidin-1-yl)(2-methylcyclopropyl)methanone] are 4130 nM and 94.6%.
In the case of `O=C(CC1COC1)N1CCC[C@H](c2cc[nH]n2)[C@@H]1CO[C@H]1CC[C@@H](c2ccccc2)CC1` (relative stereo) [Example 74, 2-(oxetan-3-yl)-1-((CIS)-2-((((CIS)-4-phenylcyclohexyl)oxy)methyl)-3-(1H-pyrazol-3-yl)piperidin-1-yl)ethan-1-one], the 50% effective concentration (EC50) is 3280 nM and the “% of reference agonist maximal effect” value was determined as 94.3%.
Taken in the same sequence, the figures for `O=C(C1CC1)N1CCC[C@H](c2cc[nH]n2)[C@@H]1CO[C@H]1CC[C@@H](c2ccccc2)CC1` (single isomer, unassigned) [Example 71, cyclopropyl((CIS)-2-((((CIS)-4-phenylcyclohexyl)oxy)methyl)-3-(1H-pyrazol-3-yl)piperidin-1-yl)methanone] were 457 nM and 82.9%.
On the same counts, the results for `COC(=O)N1C[C@H](C)C[C@H](c2ccn[nH]2)[C@@H]1CO[C@H]1CC[C@@H](c2ccccc2)CC1` (racemic) [Example 41, (+/−) methyl (2R,3S,5R)-5-methyl-2-((((CIS)-4-phenylcyclohexyl)oxy)methyl)-3-(1H-pyrazol-5-yl)piperidine-1-carboxylate] are 2360 nM and 95.4%.
Taken in the same sequence, the figures for `COC(=O)N1CCC[C@H](c2nc(O)sc2C)[C@@H]1CO[C@H]1CC[C@@H](c2ccccc2)CC1` (relative stereo) [Example 2, Methyl (CIS)-3-(2-hydroxy-5-methylthiazol-4-yl)-2-((((CIS)-4-phenylcyclohexyl)oxy)-methyl)piperidine-1-carboxylate] were 15.1 nM and 101.9%.
In the case of `COC(=O)N1CCC[C@@H](c2n[nH]cc2C(C)C)[C@H]1CO[C@H]1CC[C@@H](c2ccccc2)CC1` (single isomer, unassigned) [Example 50], the EC50 was over 10000 nM and the “% of reference agonist maximal effect” value was determined as 5.2%.
As to `COC(=O)N1CCC[C@H](c2n[nH]cc2C)[C@@H]1COC1CCN(c2ncc(F)cn2)CC1` (relative stereo) [Example 7, methyl (CIS)-2-(((1-(5-fluoropyrimidin-2-yl)piperidin-4-yl)oxy)methyl)-3-(4-methyl-1H-pyrazol-3-yl)piperidine-1-carboxylate], the EC50 amounted to 1500 nM and the “% of reference agonist maximal effect” value is 95.7%.
Consider `COC(=O)N1CCC[C@H](c2n[nH]cc2C)[C@@H]1COC1CCN(c2ccccc2)CC1` (relative stereo) [Example 8, Methyl (CIS)-3-(4-methyl-1H-pyrazol-3-yl)-2-(((1-phenylpiperidin-4-yl)oxy)methyl)piperidine-1-carboxylate], for which the EC50 worked out at 5840 nM and the “% of reference agonist maximal effect” value is listed as 80.9%.
